Here are results for one molecule from patent US20240307372A1, “COMPOSITIONS AND METHODS TO IMPROVE BENEFIT OF SUBOPTIMALLY ADMINISTERED THERAPEUCTICS FOR THE TREATMENT OF BENIGN AND NEOPLASTIC DISEASES, INFECTIONS, INFLAMMATORY, METABOLIC AND IMMUNOLOGIAL DISEASES” (priority 2023, published 2024).

The target of this assay is T1, CAMKII gamma (Homo sapiens, UniProt Q13555).
T1 construct: purchased Promega V3531
The assay is described as follows: CAMKII gamma kinase activity, ADP Glo (Promega). Format: biochemical. The settings on record: 10 uM ATP. How it is done:
An enzymatic study was conducted to evaluate the inhibition of CAMKII gamma by ES-3000 (Tetrandrine). CAMKII gamma kinase activity was measured using […] purchased from Promega following the Promega protocol. CAMKII enzyme system purchased from Promega (V3531). ADP Glo was used for detection. Assay optimized for linearity of protein and time. Conditions for inhibitor screening 25 ng CAMKII, 20 min. incubations, inhibitor or DMSO (5%) at RT in 20 uL total volume. Inhibitor, ATP (10 or 50 uM), substrates and buffer added to tubes and reactions started with enzyme. […] Reactions terminated at 20 min. by adding ADP Glo reaction following manufactures instructions. All reactions were done in duplicate. Calculations of percent (%) inhibition determined by dividing the mean activity at each condition by the mean of the DMSO control times 100.

T1 sequence (Q13555 whole entry): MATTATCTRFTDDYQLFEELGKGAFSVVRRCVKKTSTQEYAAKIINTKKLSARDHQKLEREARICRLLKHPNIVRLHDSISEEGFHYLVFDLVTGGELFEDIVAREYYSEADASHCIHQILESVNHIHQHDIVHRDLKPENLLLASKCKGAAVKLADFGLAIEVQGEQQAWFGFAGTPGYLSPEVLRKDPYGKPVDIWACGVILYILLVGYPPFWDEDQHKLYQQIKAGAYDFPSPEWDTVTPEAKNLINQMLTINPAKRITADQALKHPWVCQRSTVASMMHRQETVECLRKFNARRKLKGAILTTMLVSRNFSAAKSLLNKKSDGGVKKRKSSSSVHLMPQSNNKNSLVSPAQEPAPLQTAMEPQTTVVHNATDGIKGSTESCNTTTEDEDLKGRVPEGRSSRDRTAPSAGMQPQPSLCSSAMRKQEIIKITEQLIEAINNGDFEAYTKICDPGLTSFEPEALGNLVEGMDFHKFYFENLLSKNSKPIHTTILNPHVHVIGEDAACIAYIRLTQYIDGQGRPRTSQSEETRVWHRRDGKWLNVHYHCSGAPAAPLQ

A word on the % inhibition: it is how much of the control response was suppressed. As a reminder, the inhibition is the percentage by which the read-out fell short of the control. A lower inhibition goes with little suppression. With `COc1cc2c3cc1Oc1c(OC)c(OC)cc4c1[C@@H](Cc1ccc(O)c(c1)Oc1ccc(cc1)C[C@@H]3N(C)CC2)N(C)CC4` [berbamine, reference compound], for the setting “30 uM”, the “% inhibition” value was 37%; the inhibition at 30 µM was 36.7%; the “kinase activity, % of DMSO control” value stood at 63%. Where the note is “100 uM”, the “% inhibition” value was found to be 47%; testing at 100 µM gave an inhibition of 47.1%; the “kinase activity, % of DMSO control” value is reported as 53%. Also, under “250 uM”, the “% inhibition” value was found to be 46%; the inhibition at 250 µM was determined as 46.3%; the “kinase activity, % of DMSO control” value worked out at 54%.
